ChEMBL document CHEMBL1137466, “5'-Phenyl-3'H-spiro[indoline-3,2'-[1,3,4]thiadiazol]-2-one inhibitors of ADAMTS-5 (aggrecanase-2)” (Bioorg Med Chem Lett, 2007)
pIC50: −log10 of the molar value.

Columns and labels:
[1] = biological target: T1, A disintegrin and metalloproteinase with thrombospondin motifs 5 (Homo sapiens, UniProt Q9UNA0); assay: Inhibition of ADAMTS5 by FRET assay
T1 sequence (Q9UNA0 whole entry): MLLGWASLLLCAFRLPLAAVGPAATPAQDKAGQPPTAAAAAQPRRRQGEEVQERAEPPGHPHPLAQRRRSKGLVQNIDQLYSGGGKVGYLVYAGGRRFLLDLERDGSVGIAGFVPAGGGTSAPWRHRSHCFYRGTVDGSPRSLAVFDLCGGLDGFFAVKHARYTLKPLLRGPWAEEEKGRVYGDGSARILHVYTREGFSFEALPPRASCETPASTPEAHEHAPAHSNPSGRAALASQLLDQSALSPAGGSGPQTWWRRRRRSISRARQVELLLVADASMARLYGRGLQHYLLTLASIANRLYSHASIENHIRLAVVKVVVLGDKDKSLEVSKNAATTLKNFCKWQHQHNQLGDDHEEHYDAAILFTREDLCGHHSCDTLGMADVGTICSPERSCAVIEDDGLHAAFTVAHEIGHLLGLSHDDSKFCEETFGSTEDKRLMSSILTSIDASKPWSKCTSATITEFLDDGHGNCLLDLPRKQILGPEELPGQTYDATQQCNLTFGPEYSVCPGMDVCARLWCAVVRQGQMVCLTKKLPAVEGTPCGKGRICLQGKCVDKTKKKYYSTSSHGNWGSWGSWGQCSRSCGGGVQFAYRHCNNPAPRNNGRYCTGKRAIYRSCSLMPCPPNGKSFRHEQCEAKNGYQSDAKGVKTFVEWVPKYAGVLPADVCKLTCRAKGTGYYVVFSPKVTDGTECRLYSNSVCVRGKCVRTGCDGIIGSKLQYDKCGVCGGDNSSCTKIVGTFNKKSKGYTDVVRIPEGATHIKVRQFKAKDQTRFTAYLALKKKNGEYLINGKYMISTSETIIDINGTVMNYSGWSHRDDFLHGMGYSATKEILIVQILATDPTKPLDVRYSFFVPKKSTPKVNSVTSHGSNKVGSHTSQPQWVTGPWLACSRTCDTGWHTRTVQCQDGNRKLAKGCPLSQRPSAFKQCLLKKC

[2] = biological target: T2, A disintegrin and metalloproteinase with thrombospondin motifs 4 (Homo sapiens, UniProt O75173); assay: Inhibition of ADAMTS4
T2 sequence (O75173 whole entry): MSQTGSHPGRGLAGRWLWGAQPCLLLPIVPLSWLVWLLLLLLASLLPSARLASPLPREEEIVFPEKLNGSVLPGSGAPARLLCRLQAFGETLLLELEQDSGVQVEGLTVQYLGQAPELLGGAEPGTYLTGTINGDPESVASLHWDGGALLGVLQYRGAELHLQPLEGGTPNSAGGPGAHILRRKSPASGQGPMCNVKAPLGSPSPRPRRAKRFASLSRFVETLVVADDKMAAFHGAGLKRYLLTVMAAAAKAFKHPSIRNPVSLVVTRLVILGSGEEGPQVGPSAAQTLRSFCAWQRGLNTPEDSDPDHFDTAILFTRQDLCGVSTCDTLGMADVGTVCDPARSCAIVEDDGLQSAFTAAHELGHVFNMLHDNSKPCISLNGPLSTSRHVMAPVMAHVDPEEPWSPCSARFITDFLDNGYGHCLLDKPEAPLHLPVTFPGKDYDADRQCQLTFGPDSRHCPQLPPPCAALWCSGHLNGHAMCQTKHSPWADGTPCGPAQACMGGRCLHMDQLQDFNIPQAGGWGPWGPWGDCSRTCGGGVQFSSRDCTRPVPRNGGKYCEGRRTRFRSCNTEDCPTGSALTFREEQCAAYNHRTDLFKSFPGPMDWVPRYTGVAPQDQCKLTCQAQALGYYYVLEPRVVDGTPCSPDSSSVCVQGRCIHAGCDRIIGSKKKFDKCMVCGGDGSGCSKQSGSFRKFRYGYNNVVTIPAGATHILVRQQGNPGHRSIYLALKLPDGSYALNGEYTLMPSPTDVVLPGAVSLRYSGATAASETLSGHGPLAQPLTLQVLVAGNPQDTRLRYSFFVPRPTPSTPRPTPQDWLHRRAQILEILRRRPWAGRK

Collagenase 3 = Collagenase 3 (Homo sapiens, UniProt P45452); assay: Inhibition of MMP13
[3] = biological target: Macrophage metalloelastase (Homo sapiens, UniProt P39900); assay: Inhibition of MMP12
Macrophage metalloelastase, sequence (P39900 whole entry): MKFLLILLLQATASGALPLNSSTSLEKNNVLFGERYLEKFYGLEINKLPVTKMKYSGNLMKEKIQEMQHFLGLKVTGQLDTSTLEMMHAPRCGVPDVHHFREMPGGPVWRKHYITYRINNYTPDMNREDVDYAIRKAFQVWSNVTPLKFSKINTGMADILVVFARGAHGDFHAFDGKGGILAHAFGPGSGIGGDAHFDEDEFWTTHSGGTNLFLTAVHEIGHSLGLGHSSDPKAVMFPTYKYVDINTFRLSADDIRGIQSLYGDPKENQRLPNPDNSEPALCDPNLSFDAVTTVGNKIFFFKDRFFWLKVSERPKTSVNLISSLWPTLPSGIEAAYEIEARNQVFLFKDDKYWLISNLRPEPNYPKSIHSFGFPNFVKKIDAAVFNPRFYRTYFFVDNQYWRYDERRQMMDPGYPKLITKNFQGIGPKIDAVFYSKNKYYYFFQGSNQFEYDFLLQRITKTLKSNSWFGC

pIC50 [1] | pIC50 [2] | pIC50 (Collagenase 3) | pIC50 [3] | SMILES
5.85 | – | – | – | CCc1ccc2c(c1)C1(NN=C(c3ccc(OC)cc3)S1)C(=O)N2 (stereo unspecified)
5.92 | – | – | – | COc1ccc(C2=NNC3(S2)C(=O)Nc2cc(Cl)ccc23)cc1 (stereo unspecified)
5.12 | – | – | – | COc1ccc(C2=NNC3(S2)C(=O)N(C)c2ccccc23)cc1 (stereo unspecified)
5.70 | – | – | – | COc1ccc(C2=NNC3(S2)C(=O)Nc2ccc(Cl)cc23)cc1 (stereo unspecified)
5.43 | – | – | – | Cc1ccc(C2=NNC3(S2)C(=O)Nc2ccccc23)cc1 (stereo unspecified)
5.52 | – | – | – | Cc1ccc(C2=NNC3(S2)C(=O)Nc2ccc(C)cc23)cc1 (stereo unspecified)
– | < 4.66 | < 4.66 | 5.77 | CCCc1ccc2c(c1)NC(=O)C21NN=C(c2ccc(OC)cc2)S1 (stereo unspecified)
5.60 | – | – | – | COc1ccc(C2=NNC3(S2)C(=O)Nc2ccc(C)cc23)cc1 (stereo unspecified)
5.72 | – | – | – | CCc1ccc2c(c1)C1(NN=C(c3ccc(C)cc3)S1)C(=O)N2 (stereo unspecified)

Further lines, the molecule ahead of its results:

SMILES | pIC50 [1] | pIC50 [2] | pIC50 (Collagenase 3) | pIC50 [3]
COc1ccc(C2=NNC3(S2)C(=O)N(Cc2ccccc2)c2ccccc23)cc1 (stereo unspecified) | 6.06 | < 4.66 | < 4.00 | 5.25
O=C1Nc2ccccc2C12NN=C(c1ccccc1)S2 (stereo unspecified) | 4.62 | – | – | –
CCCc1cc2c(cc1C)C1(NN=C(c3ccc(OC)cc3)S1)C(=O)N2Cc1ccccc1 (stereo unspecified) | 6.02 | – | – | –
Cc1ccc(C2=NNC3(S2)C(=O)N(C)c2ccccc23)cc1 (stereo unspecified) | 5.34 | – | – | –
CCc1ccc2c(c1)C1(NN=C(c3ccccc3)S1)C(=O)N2 (stereo unspecified) | 5.02 | – | – | –
COc1ccc(C2=NNC3(S2)C(=O)N(Cc2ccccc2)c2ccc(C)cc23)cc1 (stereo unspecified) | – | – | < 4.00 | < 4.66
COc1ccc(C2=NNC3(S2)C(=O)N(c2ccccc2C)c2ccc(C)cc23)cc1 (stereo unspecified) | – | 4.98 | < 4.00 | < 4.66
CC(C)N1C(=O)C2(NN=C(c3ccccc3)S2)c2ccccc21 (stereo unspecified) | 5.51 | – | – | –
Cc1ccc(C2=NNC3(S2)C(=O)N(c2ccccc2C)c2ccc(C)cc23)cc1 (stereo unspecified) | 5.92 | – | – | –
